Blank lines part the entries; values can stand above or below the molecule they belong to.
Experiments:
[1] = system: glutathione (GSH); assay: Reactivity Profiling with Glutathione (GSH), half-life by HPLC; conditions: 5 mM glutathione (GSH) in IMDM with 10% FBS
Description: 3.5 μL of 5 mM stocking solution of the inhibitors in DMSO was added to 697.5 μL of Iscove's Modified Dulbecco's Medium (IMDM) supplemented with 10% FBS and antibiotic antimycotic solution, with 5 mM glutathione to afford a final concentration of 25 μM inhibitor with 0.5% DMSO. The solution was then immediately placed in the sample tray at 25° C. […] For each inhibitor, its peak is integrated at different time points and compared to the time zero injection in order to obtain a percentage remaining. Half-life is calculated according to a first order reaction kinetic taking into account those time points for which remaining percentage of inhibitor is above 40%, using the formula: t½=Ln(2)/k, where k is the slope of the linear plot of Ln[Inhibitor] vs time, according to the formula: Ln[A]=Ln[A]0−kt, where [A] is the value resulting from the integration at each time point, [A]0 the value at time zero, and t the time. For each inhibitor, both replicates are averaged and the resulting t½ reported.

[2] = system: MV4-11 cells; assay: MV4-11 Cell Cytotoxicity Assay (CellTiter-Blue, 72 h); format: cell-based, human; conditions: Homo sapiens, MV4-11; MV-4-11 cells
In short: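 Cells seeded 24 h before treatment, then exposed 72 h at 37° C, 5% CO2 to inhibitors in triplicate, top concentration 50 μM with 1:2 serial dilutions (0.5% DMSO vehicle). Viability read by CellTiter-Blue fluorescence at 560/590 nm after 1 h.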

SMILES: CC(C)(C)c1cc(CN(C(=O)CN(Cc2ccccc2F)S(=O)(=O)c2c(F)c(F)c(F)c(F)c2F)c2ccc(C(=O)O)cc2OC2CC(F)(F)C2)cc(C2CC2)c1 [Compound 1093, 4-(N-(3-(tert-butyl)-5-cyclopropylbenzyl)-2-(N-(2-fluorobenzyl)-(2,3,4,5,6-pentafluoro-phenyl)sulfonamido)acetamido)-3-(3,3-difluorocyclobutoxy) benzoic acid]
- half-life at 25 μM [1]: 554 to 100000 min
- IC50 [2]: 316 to 1000 nM

SMILES: COc1cc(C(=O)O)ccc1N(Cc1cc(C2CC2)cc(C(C)(C)C)c1)C(=O)CN(Cc1cccnc1C(F)(F)F)S(=O)(=O)c1c(F)c(F)c(F)c(F)c1F [Compound 1097, 4-(N-(3-(tert-butyl)-5-cyclopropylbenzyl)-2-(N-((2-(trifluoromethyl)pyridin-3-yl)methyl)-(2,3,4,5,6-pentafluoro-phenyl)sulfonamido)acetamido)-3-methoxybenzoic acid]
- half-life at 25 μM [1]: 247 to 554 min
- IC50 [2]: 316 to 1000 nM

SMILES: CC(C)(C)c1cc(CN(C(=O)CN(Cc2ncccc2C(F)(F)F)S(=O)(=O)c2c(F)c(F)c(F)c(F)c2F)c2ccc(C(=O)O)cc2C2CC2)cc(C2CC2)c1 [Compound 1115, 4-(N-(3-(tert-butyl)-5-cyclopropylbenzyl)-2-(N-((3-(trifluoromethyl)pyridin-2-yl)methyl)-(2,3,4,5,6-pentafluoro-phenyl)sulfonamido)acetamido)-3-cyclopropylbenzoic acid]
- half-life at 25 μM [1]: 247 to 554 min
- IC50 [2]: 0.01 to 316 nM

SMILES: COc1cc(C(=O)O)ccc1N(Cc1cc(C2CC2)cc(C(C)(C)C)c1)C(=O)CN(Cc1ccc(C(F)(F)F)cn1)S(=O)(=O)c1c(F)c(F)c(F)c(F)c1F [Compound 1117, 4-(N-(3-(tert-butyl)-5-cyclopropylbenzyl)-2-(N-((5-(trifluoromethyl)pyridin-2-yl)methyl)-(2,3,4,5,6-pentafluoro-phenyl)sulfonamido)acetamido)-3-methoxybenzoic acid]
- half-life at 25 μM [1]: 142 to 247 min
- IC50 [2]: 316 to 1000 nM

SMILES: COc1cc(C(=O)O)ccc1N(Cc1cc(C2CC2)cc(C(C)(C)C)c1)C(=O)CN(Cc1cccc(C(F)(F)F)n1)S(=O)(=O)c1c(F)c(F)c(F)c(F)c1F [Compound 1118, 4-(N-(3-(tert-butyl)-5-cyclopropylbenzyl)-2-(N-((6-(trifluoromethyl)pyridin-2-yl)methyl)-(2,3,4,5,6-pentafluoro-phenyl)sulfonamido)acetamido)-3-methoxybenzoic acid]
- half-life at 25 μM [1]: 0.1 to 142 min
- IC50 [2]: 316 to 1000 nM

SMILES: CN(C)c1cc(C(=O)O)c(F)cc1N(Cc1cc(C2CC2)cc(C(C)(C)C)c1)C(=O)CN(Cc1c(F)cc(F)cc1F)S(=O)(=O)c1c(F)c(F)c(F)c(F)c1F [Compound 1124, 4-(N-(3-(tert-butyl)-5-cyclopropylbenzyl)-2-(N-(2,4,6-trifluorobenzyl)-(2,3,4,5,6-pentafluoro-phenyl)sulfonamido)acetamido)-5-(dimethylamino)-2-fluorobenzoic acid]
- half-life at 25 μM [1]: 247 to 554 min
- IC50 [2]: 0.01 to 316 nM

SMILES: O=C(O)c1ccc(N(Cc2ncccn2)C(=O)CN(Cc2ccccc2C(F)(F)F)S(=O)(=O)c2c(F)c(F)c(F)c(F)c2F)c(OC2CC2)c1 [Compound 1128, 3-cyclopropoxy-4-(2-(N-(2-(trifluoromethyl)benzyl)-(2,3,4,5,6-pentafluoro-phenyl)sulfonamido)-N-(pyrimidin-2-ylmethyl)acetamido) benzoic acid]
- half-life at 25 μM [1]: 0.1 to 142 min
- IC50 [2]: 1000 to 3160 nM

SMILES: COc1cc(C(=O)O)ccc1N(Cc1cc(C2CC2)cc(C(C)(C)C)c1)C(=O)CN(Cc1ccncc1C(F)(F)F)S(=O)(=O)c1c(F)c(F)c(F)c(F)c1F [Compound 1130, 4-(N-(3-(tert-butyl)-5-cyclopropylbenzyl)-2-(N-((3-(trifluoromethyl)pyridin-4-yl)methyl)-(2,3,4,5,6-pentafluoro-phenyl)sulfonamido)acetamido)-3-methoxybenzoic acid]
- half-life at 25 μM [1]: 142 to 247 min
- IC50 [2]: 316 to 1000 nM

SMILES: COc1cc(C(=O)O)ccc1N(Cc1cc(C2CC2)cc(C(C)(C)C)c1)C(=O)CN(Cc1ccc(C(F)(F)F)nc1)S(=O)(=O)c1c(F)c(F)c(F)c(F)c1F [Compound 1132, 4-(N-(3-(tert-butyl)-5-cyclopropylbenzyl)-2-(N-((6-(trifluoromethyl)pyridin-3-yl)methyl)-(2,3,4,5,6-pentafluoro-phenyl)sulfonamido)acetamido)-3-methoxybenzoic acid]
- half-life at 25 μM [1]: 142 to 247 min
- IC50 [2]: 316 to 1000 nM

SMILES: COc1cc(C(=O)O)ccc1N(Cc1cc(C2CC2)cc(C(C)(C)C)c1)C(=O)CN(Cc1ccnc(C(F)(F)F)c1)S(=O)(=O)c1c(F)c(F)c(F)c(F)c1F [Compound 1133, 4-(N-(3-(tert-butyl)-5-cyclopropylbenzyl)-2-(N-((2-(trifluoromethyl)pyridin-4-yl)methyl)-(2,3,4,5,6-pentafluoro-phenyl)sulfonamido)acetamido)-3-methoxybenzoic acid]
- half-life at 25 μM [1]: 0.1 to 142 min
- IC50 [2]: 316 to 1000 nM

SMILES: COc1cc(C(=O)O)ccc1N(Cc1cc(C2CC2)cc(C(C)(C)C)c1)C(=O)CN(Cc1cc(C(F)(F)F)ccn1)S(=O)(=O)c1c(F)c(F)c(F)c(F)c1F [Compound 1134, 4-(N-(3-(tert-butyl)-5-cyclopropylbenzyl)-2-(N-((4-(trifluoromethyl)pyridin-2-yl)methyl)-(2,3,4,5,6-pentafluoro-phenyl)sulfonamido)acetamido)-3-methoxybenzoic acid]
- half-life at 25 μM [1]: 142 to 247 min
- IC50 [2]: 1000 to 3160 nM

The next lines start with results.

- half-life at 25 μM [1]: 142 to 247 min
SMILES: Cc1cc(C(=O)O)ccc1N(Cc1cc(C2CC2)cc(C(C)(C)C)c1)C(=O)CN(Cc1ccccc1F)S(=O)(=O)c1c(F)c(F)c(F)c(F)c1F [Compound 1088, 4-(N-(3-(tert-butyl)-5-cyclopropylbenzyl)-2-(N-(2-fluorobenzyl)-(2,3,4,5,6-pentafluoro-phenyl)sulfonamido)acetamido)-3-methylbenzoic acid]
- IC50 [2]: 0.01 to 316 nM

- half-life at 25 μM [1]: 554 to 100000 min
SMILES: Cc1cc(C(=O)O)ccc1N(Cc1cc(C2CC2)cc(C(C)(C)C)c1)C(=O)CN(Cc1ccccc1C(F)(F)F)S(=O)(=O)c1c(F)c(F)c(F)c(F)c1F [Compound 1089, 4-(N-(3-(tert-butyl)-5-cyclopropylbenzyl)-2-(N-(2-(trifluoromethyl)benzyl)-(2,3,4,5,6-pentafluoro-phenyl)sulfonamido)acetamido)-3-methylbenzoic acid]
- IC50 [2]: 316 to 1000 nM

- half-life at 25 μM [1]: 142 to 247 min
SMILES: Cc1cc(C(=O)O)ccc1N(Cc1cc(C2CC2)cc(C(C)(C)C)c1)C(=O)CN(Cc1ccccc1C#N)S(=O)(=O)c1c(F)c(F)c(F)c(F)c1F [Compound 1090, 4-(N-(3-(tert-butyl)-5-cyclopropylbenzyl)-2-(N-(2-cyanobenzyl)-(2,3,4,5,6-pentafluorophenyl)sulfon-amido)acetamido)-3-methylbenzoic acid]
- IC50 [2]: 316 to 1000 nM

- half-life at 25 μM [1]: 0.1 to 142 min
SMILES: COc1cc(C(=O)O)ccc1N(Cc1cc(C2CC2)cc(C(C)(C)C)c1)C(=O)CN(Cc1ccc(F)nc1F)S(=O)(=O)c1c(F)c(F)c(F)c(F)c1F [Compound 1095, 4-(N-(3-(tert-butyl)-5-cyclopropylbenzyl)-2-(N-((2,6-difluoropyridin-3-yl)methyl)-(2,3,4,5,6-pentafluorophenyl)sulfon-amido)acetamido)-3-methoxybenzoic acid]
- IC50 [2]: 0.01 to 316 nM

- half-life at 25 μM [1]: 247 to 554 min
SMILES: O=C(O)c1ccc(N(Cc2cc(C3CC3)cc(C3CC3)c2)C(=O)CN(Cc2ccccc2F)S(=O)(=O)c2c(F)c(F)c(F)c(F)c2F)c(OC2CC2)c1 [Compound 1099, 3-cyclopropoxy-4-(N-(3,5-dicyclopropylbenzyl)-2-(N-(2-fluorobenzyl)-(2,3,4,5,6-pentafluoro-phenyl)sulfonamido)acetamido)benzoic acid]
- IC50 [2]: 0.01 to 316 nM

- half-life at 25 μM [1]: 0.1 to 142 min
SMILES: CC(C)(C)c1cc(CN(C(=O)CN(C2CC2)S(=O)(=O)c2c(F)c(F)c(F)c(F)c2F)c2ccc(C(=O)O)cc2OC2CC2)cc(C2CC2)c1 [Compound 1100, 4-(N-(3-(tert-butyl)-5-cyclopropylbenzyl)-2-(N-cyclopropyl-(2,3,4,5,6-pentafluorophenyl)sulfon-amido)acetamido)-3-cyclopropoxybenzoic acid]
- IC50 [2]: 316 to 1000 nM

- half-life at 25 μM [1]: 247 to 554 min
SMILES: CN(C)c1cc(C(=O)O)ccc1N(Cc1cc(C2CC2)cc(C(C)(C)C)c1)C(=O)CN(Cc1ccccc1F)S(=O)(=O)c1c(F)c(F)c(F)c(F)c1F [Compound 1105, 4-(N-(3-(tert-butyl)-5-cyclopropylbenzyl)-2-(N-(2-fluorobenzyl)-(2,3,4,5,6-pentafluoro-phenyl)sulfonamido)acetamido)-3-(dimethylamino)benzoic acid]
- IC50 [2]: 0.01 to 316 nM

- half-life at 25 μM [1]: 142 to 247 min
SMILES: CC(C)(C)c1cc(CN(C(=O)CN(Cc2ccccc2F)S(=O)(=O)c2c(F)c(F)c(F)c(F)c2F)c2cc(C(=O)O)ccc2OC2CC2)cc(C2CC2)c1 [Compound 1110, 3-(N-(3-(tert-butyl)-5-cyclopropylbenzyl)-2-(N-(2-fluorobenzyl)-(2,3,4,5,6-pentafluoro-phenyl)sulfonamido)acetamido)-4-cyclopropoxybenzoic acid]
- IC50 [2]: 316 to 1000 nM

- half-life at 25 μM [1]: 0.1 to 142 min
SMILES: O=C(O)c1ccc(N(Cc2ccccc2)C(=O)CN(Cc2ccccc2C(F)(F)F)S(=O)(=O)c2c(F)c(F)c(F)c(F)c2F)c(OC2CC2)c1 [Compound 1126, 4-(N-benzyl-2-(N-(2-(trifluoromethyl)benzyl)-(2,3,4,5,6-pentafluoro-phenyl)sulfonamido)acetamido)-3-cyclopropoxybenzoic acid]
- IC50 [2]: 1000 to 3160 nM

- half-life at 25 μM [1]: 142 to 247 min
SMILES: O=C(O)c1ccc(N(C(=O)CN(Cc2ccccc2C(F)(F)F)S(=O)(=O)c2c(F)c(F)c(F)c(F)c2F)C2CCC2)c(OC2CC2)c1 [Compound 1129, 4-(N-cyclobutyl-2-(N-(2-(trifluoromethyl)benzyl)-(2,3,4,5,6-pentafluoro-phenyl)sulfonamido)acetamido)-3-cyclopropoxybenzoic acid]
- IC50 [2]: 3160 to 100000 nM

Source: patent publication US20230159445A1, “STAT INHIBITORY COMPOUNDS AND COMPOSITIONS” (JANPIX LIMITED, priority 2020, published 2023)
